Reference: ChEMBL document CHEMBL4196089, “Design, synthesis, biological evaluation and in vivo testing of dual phosphodiesterase 5 (PDE5) and histone deacetylase 6 (HDAC6)-selective inhibitors for the treatment of Alzheimer's disease” (Eur J Med Chem, 2018)

Tests used:
cells [1] = conditions: Homo sapiens, SH-SY5Y, 2 h, read-out: FC
[2] = target: cGMP-specific 3',5'-cyclic phosphodiesterase (Homo sapiens, UniProt O76074); assay: Inhibition of full length human recombinant N-terminal GST-tagged PDE5A1 expressed in baculovirus infected sf9 cells using cGMP as substrate after 30 mins by fluorescence assay
[3] = Effective permeability of the compound at 10 uM after 18 hrs by LC-MS/MS based PAMPA; type: ADME; conditions: read-out: Peff
cells [4] = conditions: Homo sapiens, SH-SY5Y, 2 h, read-out: FC; remark: listed apart in the source
[5] = target: T1, Protein deacetylase HDAC6 (Homo sapiens, UniProt Q9UBN7); assay: Inhibition of full length human recombinant N-terminal GST-tagged HDAC6 expressed in baculovirus infected sf9 cells using fluorogenic HDAC substrate 3 after 30 mins by fluorescence assay
T1 sequence (Q9UBN7 whole entry): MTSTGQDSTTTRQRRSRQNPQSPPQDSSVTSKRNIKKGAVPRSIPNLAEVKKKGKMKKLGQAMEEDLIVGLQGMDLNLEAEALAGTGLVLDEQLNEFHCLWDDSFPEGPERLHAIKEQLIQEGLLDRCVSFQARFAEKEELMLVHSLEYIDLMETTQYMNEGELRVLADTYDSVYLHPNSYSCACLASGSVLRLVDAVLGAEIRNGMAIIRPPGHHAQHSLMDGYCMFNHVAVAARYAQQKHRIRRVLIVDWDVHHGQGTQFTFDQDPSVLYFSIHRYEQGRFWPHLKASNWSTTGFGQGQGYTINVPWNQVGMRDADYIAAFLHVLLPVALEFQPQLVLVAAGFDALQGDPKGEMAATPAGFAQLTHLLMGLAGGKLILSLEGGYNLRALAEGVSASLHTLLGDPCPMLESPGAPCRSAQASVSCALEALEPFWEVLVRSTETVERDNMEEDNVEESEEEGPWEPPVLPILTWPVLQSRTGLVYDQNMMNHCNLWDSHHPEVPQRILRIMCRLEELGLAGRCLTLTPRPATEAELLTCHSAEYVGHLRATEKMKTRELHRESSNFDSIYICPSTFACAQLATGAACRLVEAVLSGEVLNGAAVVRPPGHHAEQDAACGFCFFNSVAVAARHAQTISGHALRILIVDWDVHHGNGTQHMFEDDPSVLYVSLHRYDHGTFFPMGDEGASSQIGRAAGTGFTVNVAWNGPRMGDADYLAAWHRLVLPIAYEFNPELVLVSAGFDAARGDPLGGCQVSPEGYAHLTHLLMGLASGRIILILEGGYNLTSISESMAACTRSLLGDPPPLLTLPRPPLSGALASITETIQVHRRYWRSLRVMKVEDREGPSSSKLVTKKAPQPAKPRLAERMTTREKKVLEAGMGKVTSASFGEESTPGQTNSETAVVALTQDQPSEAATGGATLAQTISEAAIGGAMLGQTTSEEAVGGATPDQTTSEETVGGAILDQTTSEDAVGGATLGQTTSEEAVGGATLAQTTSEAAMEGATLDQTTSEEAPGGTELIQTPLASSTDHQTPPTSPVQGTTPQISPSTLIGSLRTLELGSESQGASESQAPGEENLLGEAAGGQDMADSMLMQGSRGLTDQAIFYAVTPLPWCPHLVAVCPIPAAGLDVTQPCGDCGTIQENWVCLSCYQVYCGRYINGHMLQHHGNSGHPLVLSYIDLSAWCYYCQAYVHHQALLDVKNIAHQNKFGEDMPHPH

cells [6] = conditions: Homo sapiens, SH-SY5Y, 2 h, read-out: FC; remark: listed apart in the source
Histone deacetylase 2 = Histone deacetylase 2 (Homo sapiens, UniProt Q92769); assay: Inhibition of full length human recombinant C-terminal His-tagged HDAC2 expressed in baculovirus infected sf9 cells using fluorogenic HDAC substrate 3 after 30 mins by fluorescence assay
Sequence of Histone deacetylase 2 (Q92769 whole entry): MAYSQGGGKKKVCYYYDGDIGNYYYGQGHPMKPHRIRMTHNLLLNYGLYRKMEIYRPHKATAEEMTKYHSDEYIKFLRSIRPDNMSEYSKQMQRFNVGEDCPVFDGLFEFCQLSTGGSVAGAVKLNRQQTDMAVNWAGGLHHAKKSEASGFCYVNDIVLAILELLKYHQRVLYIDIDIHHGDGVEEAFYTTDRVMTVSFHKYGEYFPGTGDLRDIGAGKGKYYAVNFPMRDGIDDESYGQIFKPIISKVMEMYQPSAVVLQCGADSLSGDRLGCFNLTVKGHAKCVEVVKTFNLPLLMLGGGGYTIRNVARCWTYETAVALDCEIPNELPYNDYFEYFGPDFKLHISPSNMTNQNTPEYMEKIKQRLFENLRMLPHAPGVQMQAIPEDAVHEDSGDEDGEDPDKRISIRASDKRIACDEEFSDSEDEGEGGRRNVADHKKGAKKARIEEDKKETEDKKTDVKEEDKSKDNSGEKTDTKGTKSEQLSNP

[7] = Cytotoxicity against human THLE2 cells after 72 hrs by vialight cell proliferation assay; type: cell-based, THLE-2; conditions: read-out: LC50
Histone deacetylase 1 = Histone deacetylase 1 (Homo sapiens, UniProt Q13547); assay: Inhibition of full length human recombinant C-terminal FLAG/His-tagged HDAC1 expressed in baculovirus infected sf9 cells using fluorogenic HDAC substrate 3 after 30 mins by fluorescence assay
Sequence of Histone deacetylase 1 (Q13547 whole entry): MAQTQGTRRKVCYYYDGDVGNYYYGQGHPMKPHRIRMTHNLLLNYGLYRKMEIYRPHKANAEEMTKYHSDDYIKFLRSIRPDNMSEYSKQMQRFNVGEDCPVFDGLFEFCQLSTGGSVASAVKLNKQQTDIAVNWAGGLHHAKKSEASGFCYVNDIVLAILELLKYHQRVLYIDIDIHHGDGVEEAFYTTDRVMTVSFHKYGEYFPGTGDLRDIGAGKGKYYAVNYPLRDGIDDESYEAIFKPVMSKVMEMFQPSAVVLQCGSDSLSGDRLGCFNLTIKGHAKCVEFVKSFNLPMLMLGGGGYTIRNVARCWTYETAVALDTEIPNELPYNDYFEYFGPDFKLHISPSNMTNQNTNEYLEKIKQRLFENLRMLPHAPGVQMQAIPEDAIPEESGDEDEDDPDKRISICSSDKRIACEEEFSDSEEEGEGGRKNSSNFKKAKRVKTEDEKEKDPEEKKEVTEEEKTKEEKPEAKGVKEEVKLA

CCCc1nc(C)c2c(=O)[nH]c(-c3cc(-c4ccc(C(=O)NO)cc4)ccc3OCC)nn12
fold induction at 0.5 µM (cells [1]): 2.3
IC50 [2]: 2 nM
Papp at 18 h, 10 µM [3]: 2.7 ×10⁻⁶ cm/s
fold induction at 0.1 µM (cells [4]): 1.3
IC50 [5]: 326 nM
fold induction at 1 µM (cells [6]): 2.8
IC50 (Histone deacetylase 2): > 20000 nM
CC50 at 72 h [7]: > 100000 nM
IC50 (Histone deacetylase 1): 4100 nM
